Legend:
[1] = test system: PFKFB3 (6-phosphofructo-2-kinase/fructose-2,6-biphosphatase 3); test: PFKFB3 expression on reconstructed epidermis in tired condition (immunofluorescence); assay type: cell-based, human; conditions: rotenone alone
From the text: The aim of this study is to determine the level of expression of PFKFB3 (6-phosphofructo-2-kinase/fructose-2,6-biphosphatase 3) in a model of “tired” reconstructed human skin.
PFKFB3 is involved in the glycolysis process. It is an inducible enzyme that is expressed by the active epithelial cells of the epidermis. It enables the activation of the enzyme PFK-1 (phosphofructokinase-1), which limits this glycolysis process.
To obtain “tired” skin, this is reconstructed using adult donor keratinocytes and a respiratory chain inhibitor (rotenone) to create a lack of energy (see example 6). These cultures are treated during reconstruction with 0.1% E1 Myrciaria extract (volume/volume), i.e. diluted 1/1000th in the culture medium.
(§1) Protocol: On day 12 of epidermal reconstruction, rotenone is added to the culture medium. A control condition is maintained without adding rotenone but changing the culture medium anyway. After 3 h incubation with the inhibitor, the medium is changed to a new medium containing 0.1% E1 Myrciaria extract and the epidermises are incubated again for 48 h. […]
For staining, the cuts are dewaxed by xylene and ethanol baths and then rinsed. […] The cuts are then examined under an Epi-fluorescence microscope (Zeiss Axiovert 200M microscope). A quantification of the fluorescence, using Volocity® image analysis software (PerkinElmer, Inc.), is performed from the obtained photographs.

reconstructed epidermis = test: Morphology of reconstructed epidermis in tired condition (rotenone), haematoxylin-eosin staining; assay type: cell-based, human; conditions: rotenone added on day 12 of reconstruction, 3 h incubation
From the text: The aim of this study is to create a model of reconstructed “tired” human skin. To do this, the skin is reconstructed using adult donor keratinocytes and a respiratory chain inhibitor (rotenone) to create a lack of energy.
The use of a respiratory chain inhibitor such as rotenone creates mitochondrial dysfunction, including ATP depletion. Therefore, lack of cellular energy was equated in our model to a state of cellular fatigue (Han G et al, The mitochondrial complex I inhibitor rotenone induces endoplasmic reticulum stress and activation of GSK-3β in cultured rat retinal cells, Invest Ophthalmol Vis Sci. 31; 55(9):5616-28, 2014). These cultures are treated during the reconstruction with 0.1% E1 Myrciaria extract (volume/volume), i.e. diluted 1/1000th or 1% (volume/volume), i.e. diluted 1/100th in the culture medium.
as §1, with “epidermis is” for “epidermises are”, “h. The placebo condition contains PBS (phosphate buffer saline) in the culture medium. The morphology of the skin is then observed by a Haematoxylin-Eosin (HE) staining.” for “h.”

creatine kinase = test: Creatine kinase activity on "tired" dermal fibroblast cultures; assay type: cell-based; conditions: 0.1% E1 extract or vitamin C at 4 μg/mL, two days of treatment
Protocol: The aim of this study is to determine the level of creatine kinase activity in dermal fibroblast cultures. The function of this enzyme is to catalyse the conversion of creatine to phosphocreatine, thus providing a rapidly usable energy reserve. This activity measurement is performed on cultures of “tired” dermal fibroblasts treated with 0.1% E1 Myrciaria extract (volume/volume), i.e. diluted 1/1000th in the culture medium. Protocol: Dermal fibroblast cultures are “tired” by a few replications (cells used between passes 15 and 20) and are fed with a nutrient-poor medium (without glucose) for 3 days. These cultures are treated with 0.1% E1 Myrciaria extract, or with vitamin C at 4 μg/mL as a positive control, from the second day of stress and for the remaining two days of stress. Two days after the start of treatment, a measurement of creatine kinase activity is performed using a kit (Abcam—ref: ab155901). For this purpose, the fibroblasts are detached with the CK buffer contained in the kit, recovered and centrifuged at 4000 g for 5 min at 4° C. The activity is then measured for each sample according to the kit protocol. Kinetics are obtained by a colorimetric reading with the Synergy 2 spectrometer (Biotek) coupled to Gen5 software.

SMILES: C=C(C)[C@H]1Cc2c(ccc3c2O[C@@H]2COc4cc(OC)c(OC)cc4[C@@H]2C3=O)O1 [rotenone]
- PFKFB3 expression change compared to unstressed epidermises [1]: −20%
- morphology of reconstructed epidermis versus control (HE staining) (reconstructed epidermis): thinner epidermis than the control and a more damaged basal layer

SMILES: O=C1O[C@H]([C@@H](O)CO)C(O)=C1O [vitamin C]
- creatine kinase activity increase compared to untreated "tired" cells (creatine kinase): +44%
